Legend:
Format in all cases: cell-based
[1] = test system: T-Rex 293 cell line SC3 cells having increased expression of androgen receptor protein; assay: Cellular growth inhibition, T-Rex 293 SC3 cells with doxycycline (increased androgen receptor expression); conditions: with 10 ng/mL doxycycline (increased androgen receptor), 72 hours, CellTiter-Glo 2.0
How it was run: (§1)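 Doxycycline (10 ng/mL) was either included or omitted to toggle wild-type androgen receptor expression in SC3 cells, a T-Rex 293 clone, grown in stripped-serum, phenol red-free medium. After 72 hours with compound, viable cells were quantified by CellTiter-Glo 2.0.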

[2] = test system: T-Rex 293 cell line SC3 cells lacking increased expression of androgen receptor protein; assay: Cellular growth inhibition, T-Rex 293 SC3 cells without doxycycline; conditions: not exposed to doxycycline, 72 hours, CellTiter-Glo 2.0
How it was run: as §1

[3] = test system: T-Rex 293 cell line SC cells having increased expression of progesterone receptor isoform B protein; assay: Cellular growth inhibition, T-Rex 293 SC cells with doxycycline (increased progesterone receptor isoform B expression); conditions: with 10 ng/mL doxycycline (increased progesterone receptor isoform B), 72 hours, CellTiter-Glo 2.0
Description: (§2) The following types of cells were prepared for this experiment: (i) a T-Rex 293 cell line having increased expression of progesterone receptor isoform B protein due to exposure to doxycycline and (ii) a T-Rex 293 cell line lacking increased expression of progesterone receptor isoform B protein. Ability of the test compounds to inhibit proliferation of the foregoing cell types was evaluated according to the procedures set forth below.
(§3) The doxycycline-inducible progesterone receptor isoform B protein expressing cell line was established using the following protocol: T-Rex 293 cells were purchased from Invitrogen (Cat #R71007) and transfected using Lipofectamine 2000 with the wild-type progesterone receptor B protein sequence cloned into the pcDNA4/TO vector. Transfected cells were selected using 400 μg/mL Zeocin (Invitrogen Cat #R25001). Following selection, single clones were raised and maintained in Dulbecco's Modified Eagle Medium (DMEM) supplemented with 10% w/w Tetracycline-free fetal bovine serum (FBS) and 250 μg/mL Zeocin. Clones were analyzed for expression of progesterone receptor isoform B protein in the presence and absence of 10 ng/mL doxycycline (Sigma Cat #D9891), and a single doxycycline-inducible clone (hereinafter “SC”) was selected for use in downstream assays.
(§4) The SC cells were seeded on poly-D-lysine coated, black clear-bottom 384-well plates at 2500/well, in 25 μL Phenol Red Free Dulbecco's Modified Eagle Medium (DMEM) supplemented with 10% w/w charcoal-dextran treated fetal bovine serum (FBS) and 1% w/w pen-strep, with or without 10 ng/mL doxycycline. Pen-Strep is a commercially available mixture of penicillin G and streptomycin, which is used in mammalian cell culture media to prevent bacterial contamination. Phenol Red Free Dulbecco's Modified Eagle Medium (DMEM) supplemented with 10% w/w charcoal-dextran treated fetal bovine serum (FBS) and 1% w/w pen-strep, with or without 10 ng/mL doxycycline is herein referred to as Treatment Medium. Following seeding of cells in the plates, the plates were spun at 300×g for 30 seconds, then equilibrated to room temperature for 30 minutes, and then deposited in a humidified tissue culture incubator maintained at 37° C. with 5% CO2.
(§5) At 24 hours after seeding of the cells, dilutions of test compound were prepared in DMSO and dissolved in Treatment Medium, to achieve a final DMSO concentration of 0.5% w/w, thereby providing the Test Compound Solution. A 25 μL aliquot of the Test Compound Solution was added to cells in the well plates. An equal volume of a solution containing DMSO and Treatment Medium was used as a negative control. Following treatment of cells with Test Compound Solution or said equal volume of a solution containing DMSO and Treatment Medium, the plates were spun at 300×g for 30 seconds, and then left in an incubator for 72 hours.
(§6) At the end of the treatment duration, cell viability was quantified with CellTiter-Glo 2.0 reagent (Promega Cat #G9243). For this purpose, plates were equilibrated to room temperature for 30 minutes, and then 25 μL of CellTiter-Glo 2.0 reagent was added to cells in the plate wells. Plates were then agitated on a shaker for two minutes at 500 rpm and subsequently incubated at room temperature for 10 minutes. Following incubation, the plates were spun at 3000×g for 30 seconds, then sealed with an optical adhesive cover, and luminescence readings were measured with an EnVision Plate Reader (Perkin Elmer).
(§7) Data was normalized using zero luminescence for baseline. A four-parameter non-linear regression curve fit was applied to dose-response data in GraphPad Prism data analysis software to determine the half-maximal growth inhibitory concentration (GI50) for each test compound.

[4] = test system: T-Rex 293 cell line SC cells lacking increased expression of progesterone receptor isoform B protein; assay: Cellular growth inhibition, T-Rex 293 SC cells without doxycycline; conditions: not exposed to doxycycline, 72 hours, CellTiter-Glo 2.0
Description: as §2, §3, §4, §5, §6, §7

[5] = test system: T47D cells; assay: Cellular growth inhibition assay for T47D cells; conditions: Homo sapiens, 72 hours, CellTiter-Glo 2.0
How it was run: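 Luminescence from CellTiter-Glo 2.0 after 72 h of compound exposure gives the viability signal. Cells grew in insulin-supplemented (0.2 units/mL) DMEM with 10% FBS and were treated one day after seeding at 0.5% DMSO. GI50 values come from four-parameter nonlinear regression.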

- GI50 [5]: 0.5 to 1.5 µM
SMILES: CC1(C)[C@H](NC(=O)c2cnc(N3CCC(OCCOCCOCCNS(=O)(=O)c4ccc(Nc5ncc(Br)c(Nc6cccc(F)c6C(N)=O)n5)cc4)CC3)nc2)C(C)(C)[C@H]1Oc1ccc(C#N)c(Cl)c1 [Compound I-14]
- GI50 [1]: > 3.5 µM
- GI50 [2]: > 3.5 µM
- GI50 [3]: > 3 µM
- GI50 [4]: > 3 µM

Source: patent US20260159520A1, “HETEROBIFUNCTIONAL COMPOUNDS AND METHODS OF TREATING DISEASE” (Halda Therapeutics OpCo, Inc., priority 2022, published 2026)
